# Experimental data as given in PubChem BioAssay (NCI).
#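 Dose response: 5 concentrations. Exposure: 48 h. Format: 96-well plates. Endpoint: linear interpolation; highest concentration if not reached. TGI marks complete inhibition of growth.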
# Tests used:
# Test in all cases: inhibition of tumour cell growth, NCI panel, 48 h
# CAKI-1 renal = system: CAKI-1 renal
# HCT-116 colon = system: HCT-116 colon
# RPMI-8226 leukemia = system: RPMI-8226 leukemia
# SNB-19 CNS = system: SNB-19 CNS
# A549 NSCLC = system: A549 NSCLC
# CCRF-CEM leukemia = system: CCRF-CEM leukemia
# DLD-1 colon = system: DLD-1 colon
# OVCAR-3 ovarian = system: OVCAR-3 ovarian
# SK-MEL-28 melanoma = system: SK-MEL-28 melanoma
# HOP-62 NSCLC = system: HOP-62 NSCLC
# HL-60(TB) leukemia = system: HL-60(TB) leukemia
# UO-31 renal = system: UO-31 renal
# NCI-H522 lung = system: NCI-H522 lung
# ACHN renal = system: ACHN renal
# HOP-18 NSCLC = system: HOP-18 NSCLC
# IGROV1 ovarian = system: IGROV1 ovarian
# NCI-H460 lung = system: NCI-H460 lung
# LOX IMVI melanoma = system: LOX IMVI melanoma
# KM12 colon = system: KM12 colon
# U251 CNS = system: U251 CNS
# HCT-15 colon = system: HCT-15 colon
# M19-MEL melanoma = system: M19-MEL melanoma
# TK-10 renal = system: TK-10 renal
# COLO 205 colon = system: COLO 205 colon
# NCI-H23 lung = system: NCI-H23 lung
# SK-OV-3 ovarian = system: SK-OV-3 ovarian
# RXF 393 renal = system: RXF 393 renal
# MOLT-4 leukemia = system: MOLT-4 leukemia
# HCC-2998 colon = system: HCC-2998 colon
# DMS 273 small cell lung = system: DMS 273 small cell lung
# NCI-H226 lung = system: NCI-H226 lung
# LXFL 529 NSCLC = system: LXFL 529 NSCLC
# DMS 114 small cell lung = system: DMS 114 small cell lung
# SK-MEL-5 melanoma = system: SK-MEL-5 melanoma
# K-562 leukemia = system: K-562 leukemia
# SK-MEL-2 melanoma = system: SK-MEL-2 melanoma
# KM20L2 colon = system: KM20L2 colon
# UACC-62 melanoma = system: UACC-62 melanoma
# OVCAR-5 ovarian = system: OVCAR-5 ovarian
# SF-539 CNS = system: SF-539 CNS
# HOP-92 NSCLC = system: HOP-92 NSCLC
# OVCAR-8 ovarian = system: OVCAR-8 ovarian
# EKVX NSCLC = system: EKVX NSCLC
# SN12C renal = system: SN12C renal
# HT29 colon = system: HT29 colon
# OVCAR-4 ovarian = system: OVCAR-4 ovarian
# XF 498 CNS = system: XF 498 CNS
# M14 melanoma = system: M14 melanoma
# SF-268 CNS = system: SF-268 CNS
# SW-620 colon = system: SW-620 colon
# MALME-3M melanoma = system: MALME-3M melanoma
# SR leukemia = system: SR leukemia
structure (smiles),measurement,setting,value
CCC(=C(C#N)C#N)c1cc(OC)c(OC)c(OC)c1,TGI,CAKI-1 renal,> 100 µM
same,TGI,HCT-116 colon,> 100 µM
same,TGI,RPMI-8226 leukemia,35.6 µM
same,TGI,SNB-19 CNS,> 100 µM
same,TGI,A549 NSCLC,> 100 µM
same,TGI,CCRF-CEM leukemia,> 100 µM
same,TGI,DLD-1 colon,> 100 µM
same,TGI,OVCAR-3 ovarian,> 100 µM
same,TGI,SK-MEL-28 melanoma,> 100 µM
same,TGI,HOP-62 NSCLC,> 100 µM
same,TGI,HL-60(TB) leukemia,44.5 µM
same,TGI,UO-31 renal,> 100 µM
same,TGI,NCI-H522 lung,> 100 µM
same,TGI,ACHN renal,> 100 µM
same,TGI,HOP-18 NSCLC,> 100 µM
same,TGI,IGROV1 ovarian,> 100 µM
same,TGI,NCI-H460 lung,> 100 µM
same,TGI,LOX IMVI melanoma,> 100 µM
same,TGI,KM12 colon,> 100 µM
same,TGI,U251 CNS,> 100 µM
same,TGI,HCT-15 colon,> 100 µM
same,TGI,M19-MEL melanoma,> 100 µM
same,TGI,TK-10 renal,> 100 µM
same,TGI,COLO 205 colon,> 100 µM
same,TGI,NCI-H23 lung,> 100 µM
same,TGI,SK-OV-3 ovarian,> 100 µM
same,TGI,RXF 393 renal,> 100 µM
same,TGI,MOLT-4 leukemia,> 100 µM
same,TGI,HCC-2998 colon,> 100 µM
same,TGI,DMS 273 small cell lung,> 100 µM
same,TGI,NCI-H226 lung,> 100 µM
same,TGI,LXFL 529 NSCLC,> 100 µM
same,TGI,DMS 114 small cell lung,> 100 µM
same,TGI,SK-MEL-5 melanoma,> 100 µM
same,TGI,K-562 leukemia,> 100 µM
same,TGI,SK-MEL-2 melanoma,> 100 µM
same,TGI,KM20L2 colon,> 100 µM
same,TGI,UACC-62 melanoma,> 100 µM
same,TGI,OVCAR-5 ovarian,> 100 µM
same,TGI,SF-539 CNS,> 100 µM
same,TGI,HOP-92 NSCLC,> 100 µM
same,TGI,OVCAR-8 ovarian,> 100 µM
same,TGI,EKVX NSCLC,> 100 µM
same,TGI,SN12C renal,> 100 µM
same,TGI,HT29 colon,> 100 µM
same,TGI,OVCAR-4 ovarian,> 100 µM
same,TGI,XF 498 CNS,> 100 µM
same,TGI,M14 melanoma,> 100 µM
same,TGI,SF-268 CNS,> 100 µM
same,TGI,SW-620 colon,> 100 µM
same,TGI,MALME-3M melanoma,> 100 µM
same,TGI,SR leukemia,> 100 µM
